{"source": "the NIST ThermoML archive (doi:10.1016/j.jct.2017.07.019)", "conditions": "Liquid, Ebulliometric method (Recirculating still)", "note": "± gives the expanded uncertainty stated by the source.", "data": [{"smiles": "ClC(Cl)Cl", "note": "[trichloromethane]", "values": [{"measurement": "vapor or sublimation pressure", "setting": "334.35 K", "result": "101.3 ± 0.7", "unit": "kPa"}]}, {"smiles": "Cc1ccc(C)cc1", "note": "[1,4-dimethylbenzene]", "values": [{"measurement": "vapor or sublimation pressure", "setting": "411.45 K", "result": "101.3 ± 0.7", "unit": "kPa"}]}, {"smiles": "OCC(F)(F)C(F)F", "note": "[2,2,3,3-tetrafluoro-1-propanol]", "values": [{"measurement": "vapor or sublimation pressure", "setting": "382.15 K", "result": "101.3 ± 0.6", "unit": "kPa"}]}, {"smiles": "O", "note": "[water]", "values": [{"measurement": "vapor or sublimation pressure", "setting": "373.05 K", "result": "101.3 ± 0.6", "unit": "kPa"}]}]}
